Experimental data published in patent publication US10647713B2 (Nimbus Lakshmi, Inc., priority 2016, dated 2020).
pKd: −log10 of the molar value.

The compounds below were run against human TYK2 (JH2domain-pseudokinase) (Homo sapiens (Human), UniProt P29597) (assay: TYK2 JH2 Domain Binding Assay (KINOMEscan, DiscoveRx)). Conditions: 11-point dilution, duplicate.
How it was run: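 Kd from duplicate 11-point 3-fold dilutions starting at 30,000 nM, fitted by Hill equation with slope fixed at −1. Compounds (final 0.9% DMSO) displace DNA-tagged HEK293-expressed TYK2 JH2 fusion (<0.1 nM) from ligand-coated beads over 1 h at room temperature; eluted kinase read by qPCR.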

Sequence of human TYK2 (JH2domain-pseudokinase) (P29597 556-888): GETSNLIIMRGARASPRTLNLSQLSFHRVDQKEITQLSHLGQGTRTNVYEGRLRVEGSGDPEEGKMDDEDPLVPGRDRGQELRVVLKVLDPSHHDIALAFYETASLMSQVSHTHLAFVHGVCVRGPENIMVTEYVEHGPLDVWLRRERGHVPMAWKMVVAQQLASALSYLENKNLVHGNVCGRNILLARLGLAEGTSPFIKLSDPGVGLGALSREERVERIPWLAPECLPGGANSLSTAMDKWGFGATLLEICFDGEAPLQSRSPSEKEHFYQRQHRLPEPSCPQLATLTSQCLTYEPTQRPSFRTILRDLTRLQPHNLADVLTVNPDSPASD

pKd	SMILES
9.30 to 10.00	COCCCn1ccc(-c2ccc(Nc3cc(NC(=O)C4CC4)nc4[nH]c(C(F)F)nc34)c(S(C)(=O)=O)c2)n1 [I-501, N-(2-(difluoromethyl)-7-((4-(1-(3-methoxypropyl)-1H-pyrazol-3-yl)-2-(methylsulfonyl)phenyl)amino)-3H-imidazo[4,5-b]pyridin-5-yl)cyclopropanecarboxamide]
> 10.00	CS(=O)(=O)c1ccccc1Nc1cc(Nc2cccc(C#N)n2)nc2[nH]c(C(F)F)nc12 [I-602, 6-((2-(difluoromethyl)-7-((2-(methylsulfonyl)phenyl)amino)-3H-imidazo[4,5-b]pyridin-5-yl)amino)picolinonitrile]
> 10.00	CS(=O)(=O)c1cc(C2CCCCO2)ccc1Nc1cc(NC(=O)C2CC2)nc2[nH]c(C(F)F)nc12 (centres unmarked) [I-401, N-(2-(difluoromethyl)-7-((2-(methylsulfonyl)-4-(tetrahydro-2H-pyran-2-yl)phenyl)amino)-3H-imidazo[4,5-b]pyridin-5-yl)cyclopropanecarboxamide]
9.30 to 10.00	Cn1ccc(-c2ccc(Nc3cc(NC(=O)[C@H]4C[C@@H]4F)nc4[nH]c(C(F)F)nc34)c(S(C)(=O)=O)c2)n1 [I-371, (1R,2S)—N-(2-(difluoromethyl)-7-((4-(1-methyl-1H-pyrazol-3-yl)-2-(methylsulfonyl)phenyl)amino)-3H-imidazo[4,5-b]pyridin-5-yl)-2-fluorocyclopropane-1-carboxamide]
9.30 to 10.00	Cc1nc2c(Nc3ccc(C4CCCCO4)cc3S(C)(=O)=O)cc(Nc3cc4n(n3)CCOC4)nc2[nH]1 (stereo in doubt) [I-586, (R)—N5-(6,7-dihydro-4H-pyrazolo[5,1-c][1,4]oxazin-2-yl)-2-methyl-N7-(2-(methylsulfonyl)-4-(tetrahydro-2H-pyran-2-yl)phenyl)-3H-imidazo[4,5-b]pyridine-5,7-diamine]
9.30 to 10.00	Cc1nc2c(Nc3ccc([C@@H]4CCCO4)cc3S(C)(=O)=O)cc(NC(=O)C3CC3(F)F)nc2[nH]1 (stereo partly drawn) [I-348, 2,2-difluoro-N-(2-methyl-7-((2-(methylsulfonyl)-4-((S)-tetrahydrofuran-2-yl)phenyl)amino)-3H-imidazo[4,5-b]pyridin-5-yl)cyclopropane-1-carboxamide]
9.00 to 9.30	CS(=O)(=O)c1cc([C@H]2CCCCO2)ccc1Nc1cc(Nc2cccc(C(F)(F)F)n2)nc2[nH]c(C(F)F)nc12 [I-517, (R)-2-(difluoromethyl)-N7-(2-(methylsulfonyl)-4-(tetrahydro-2H-pyran-2-yl)phenyl)-N5-(6-(trifluoromethyl)pyridin-2-yl)-3H-imidazo[4,5-b]pyridine-5,7-diamine]
9.30 to 10.00	CCOc1ccc(Nc2cc(Nc3ccccc3S(C)(=O)=O)c3nc(C(F)F)[nH]c3n2)nc1C#N [I-524]
> 10.00	C#Cc1cccc(Nc2cc(Nc3ccccc3S(C)(=O)=O)c3nc(C)[nH]c3n2)n1 [I-547, N5-(6-ethynylpyridin-2-yl)-2-methyl-N7-(2-(methylsulfonyl)phenyl)-3H-imidazo[4,5-b]pyridine-5,7-diamine]
9.00 to 9.30	COc1c(Nc2cc(Nc3cccc(C#N)n3)nc3[nH]c(C(F)F)nc23)cccc1-c1nc(C)nn1C [I-541, 6-((2-(difluoromethyl)-7-((3-(1,3-dimethyl-1H-1,2,4-triazol-5-yl)-2-methoxyphenyl)amino)-3H-imidazo[4,5-b]pyridin-5-yl)amino)picolinonitrile]
8.00 to 9.00	Cc1nc2c(Nc3ccc(-c4nn(C)cc4C)cc3S(C)(=O)=O)cc(NC(=O)[C@H]3CC3(C)C)nc2[nH]1 [I-479, (S)—N-(7-((4-(1,4-dimethyl-1H-pyrazol-3-yl)-2-(methylsulfonyl)phenyl)amino)-2-methyl-3H-imidazo[4,5-b]pyridin-5-yl)-2,2-dimethylcyclopropane-1-carboxamide]

Continued, compound first:

SMILES	pKd
Cc1c(-c2ccc(Nc3cc(NC(=O)[C@H]4CC4(F)F)nc4[nH]c(C(F)F)nc34)c(S(C)(=O)=O)c2)cnn1C [I-309, (R)—N-(2-(difluoromethyl)-7-((4-(1,5-dimethyl-1H-pyrazol-4-yl)-2-(methylsulfonyl)phenyl)amino)-3H-imidazo[4,5-b]pyridin-5-yl)-2,2-difluorocyclopropane-1-carboxamide]	9.30 to 10.00
COc1c(Nc2cc(NC(=O)C3CC3)nc3[nH]c(C)nc23)cccc1-c1nc(C)cs1 [I-321, N-(7-((2-methoxy-3-(4-methylthiazol-2-yl)phenyl)amino)-2-methyl-3H-imidazo[4,5-b]pyridin-5-yl)cyclopropanecarboxamide]	8.00 to 9.00
CP(C)(=O)c1cc(C2CC2)ccc1Nc1cc(NC(=O)C2CC2)nc2[nH]c(C(F)F)nc12 [I-285, N-(7-((4-cyclopropyl-2-(dimethylphosphoryl)phenyl)amino)-2-(difluoromethyl)-3H-imidazo[4,5-b]pyridin-5-yl)cyclopropanecarboxamide]	9.30 to 10.00
Cc1nc2c(Nc3ccc(Cl)cc3S(C)(=O)=O)cc(NC(=O)C3CC3)nc2[nH]1 [I-126, N-(7-((4-chloro-2-(methylsulfonyl)phenyl)amino)-2-methyl-3H-imidazo[4,5-b]pyridin-5-yl)cyclopropanecarboxamide]	9.30 to 10.00
Cc1nc2c(Nc3ccc(C(F)F)cc3N(C)S(C)(=O)=O)cc(Nc3cccc(C#N)n3)nc2[nH]1 [I-195, N-(2-((5-((6-cyanopyridin-2-yl)amino)-2-methyl-3H-imidazo[4,5-b]pyridin-7-yl)amino)-5-(difluoromethyl)phenyl)-N-methylmethanesulfonamide]	9.30 to 10.00
[2H]C([2H])([2H])N(c1ccccc1Nc1cc(Nc2cc(C)nc(C)n2)nc2[nH]c(C)nc12)S(C)(=O)=O [I-201, N-(2-((5-((2,6-dimethylpyrimidin-4-yl)amino)-2-methyl-3H-imidazo[4,5-b]pyridin-7-yl)amino)phenyl)-N-(methyl-d3)methanesulfonamide]	9.30 to 10.00
Cc1nc2c(Nc3ccc(-c4ncc(C)s4)cc3S(C)(=O)=O)cc(Nc3cccc(C#N)n3)nc2[nH]1 [I-503, 6-((2-methyl-7-((2-(methylsulfonyl)-4-(5-methylthiazol-2-yl)phenyl)amino)-3H-imidazo[4,5-b]pyridin-5-yl)amino)picolinonitrile]	9.30 to 10.00
Cc1cnc(-c2ccc(Nc3cc(Nc4cccc(C#N)n4)nc4[nH]c(C(F)F)nc34)c(S(C)(=O)=O)c2)n1C [I-341]	9.30 to 10.00
Cc1ccc(Nc2cc(Nc3ccc(Cl)cc3S(C)(=O)=O)c3nc(C)[nH]c3n2)nn1 [I-189, N7-(4-chloro-2-(methylsulfonyl)phenyl)-2-methyl-N5-(6-methylpyridazin-3-yl)-3H-imidazo[4,5-b]pyridine-5,7-diamine]	9.30 to 10.00
Cc1nc2c(Nc3ccc(-c4nn(C)cc4C)cc3S(C)(=O)=O)cc(NC(=O)[C@H]3C[C@H]3F)nc2[nH]1 [I-263, (1R,2R)—N-(7-((4-(1,4-dimethyl-1H-pyrazol-3-yl)-2-(methylsulfonyl)phenyl)amino)-2-methyl-3H-imidazo[4,5-b]pyridin-5-yl)-2-fluorocyclopropane-1-carboxamide]	> 10.00
Cc1ncc(Nc2cc(Nc3ccc(-c4cncn4C)cc3N(C)S(C)(=O)=O)c3nc(C(F)F)[nH]c3n2)nc1C [I-154, N-(2-((2-(difluoromethyl)-5-((5,6-dimethylpyrazin-2-yl)amino)-3H-imidazo[4,5-b]pyridin-7-yl)amino)-5-(1-methyl-1H-imidazol-5-yl)phenyl)-N-methylmethanesulfonamide]	9.30 to 10.00
COc1c(Nc2cc(NC(=O)[C@H]3C[C@H]3F)nc3[nH]c(C)nc23)cccc1-c1ncn(C)n1 [I-267, (1R,2R)-2-fluoro-N-(7-((2-methoxy-3-(1-methyl-1H-1,2,4-triazol-3-yl)phenyl)amino)-2-methyl-3H-imidazo[4,5-b]pyridin-5-yl)cyclopropane-1-carboxamide]	8.00 to 9.00
Cc1ncc(Nc2cc(Nc3ccc(C4CCC(C)(C)CO4)cc3S(C)(=O)=O)c3nc(C(F)F)[nH]c3n2)nc1C (centres unmarked) [I-605, 2-(difluoromethyl)-N5-(5,6-dimethylpyrazin-2-yl)-N7-(4-(5,5-dimethyltetrahydro-2H-pyran-2-yl)-2-(methylsulfonyl)phenyl)-3H-imidazo[4,5-b]pyridine-5,7-diamine]	9.30 to 10.00
CS(=O)(=O)c1cc([C@H]2CCCCO2)ccc1Nc1cc(NC(=O)[C@H]2CC2(F)F)nc2[nH]c(C(F)F)nc12 [I-280, (R)—N-(2-(difluoromethyl)-7-((2-(methylsulfonyl)-4-((R)-tetrahydro-2H-pyran-2-yl)phenyl)amino)-3H-imidazo[4,5-b]pyridin-5-yl)-2,2-difluorocyclopropane-1-carboxamide]	9.00 to 9.30
COc1c(Nc2cc(Nc3cc(C)nc(C)n3)nc3[nH]cnc23)cccc1-c1ncn(C)n1 [I-3, N5-(2,6-dimethylpyrimidin-4-yl)-N7-(2-methoxy-3-(1-methyl-1H-1,2,4-triazol-3-yl)phenyl)-3H-imidazo[4,5-b]pyridine-5,7-diamine]	9.30 to 10.00
Cc1nc(-c2ccc(Nc3cc(Nc4cccc(C#N)n4)nc4[nH]c(C(F)F)nc34)c(S(C)(=O)=O)c2)sc1C [I-507, 6-((2-(difluoromethyl)-7-((4-(4,5-dimethylthiazol-2-yl)-2-(methylsulfonyl)phenyl)amino)-3H-imidazo[4,5-b]pyridin-5-yl)amino)picolinonitrile]	8.00 to 9.00
Cc1cnn(-c2ccc(Nc3cc(NC(=O)C4CC4)nc4[nH]c(C)nc34)c(N(C)S(C)(=O)=O)c2)c1 [I-145, N-(2-methyl-7-((4-(4-methyl-1H-pyrazol-1-yl)-2-(N-methylmethylsulfonamido)phenyl)amino)-3H-imidazo[4,5-b]pyridin-5-yl)cyclopropanecarboxamide]	9.00 to 9.30
CS(=O)(=O)c1cc(C2CCC(F)(F)CO2)ccc1Nc1cc(NC(=O)C2CC2)nc2[nH]c(C(F)F)nc12 (centres unmarked) [I-571, N-(2-(difluoromethyl)-7-((4-(5,5-difluorotetrahydro-2H-pyran-2-yl)-2-(methylsulfonyl)phenyl)amino)-3H-imidazo[4,5-b]pyridin-5-yl)cyclopropanecarboxamide]	9.30 to 10.00
